pIC50: −log10 of the molar value. Read-outs that look alike come from different tables or passages of the source.
Assays:
[1] = target: mouse Smoothened receptor (Mus musculus, UniProt P56726); test: Smo binding assay, displacement of radio-labeled smoothened agonist, filter binding format (mouse); settings: displacement of small molecule agonist of Smoothened, read-out: Mouse Smo bdg., IC50
Excerpt: A Smo binding assay was developed using radio-labeled smoothened agonist for compound competition.

Gli-luciferase activity = test: Reporter gene assay (RGA) in TMHh12 cells, antagonism of Gli-luciferase activity in the presence of a Smo agonist; format: cell-based
Experimental: Activity of the compounds was evaluated using a reporter gene assay (RGA) in TMHh12 cells.

[2] = 25 nM small molecule Smo agonist, read-out: RGA (25 nM Smo agonist) IC50
[3] = read-out: RGA (1 nM Smo agonist) IC50, 1 nM small molecule Smo agonist

Chain of mouse Smoothened receptor (P56726 33-793): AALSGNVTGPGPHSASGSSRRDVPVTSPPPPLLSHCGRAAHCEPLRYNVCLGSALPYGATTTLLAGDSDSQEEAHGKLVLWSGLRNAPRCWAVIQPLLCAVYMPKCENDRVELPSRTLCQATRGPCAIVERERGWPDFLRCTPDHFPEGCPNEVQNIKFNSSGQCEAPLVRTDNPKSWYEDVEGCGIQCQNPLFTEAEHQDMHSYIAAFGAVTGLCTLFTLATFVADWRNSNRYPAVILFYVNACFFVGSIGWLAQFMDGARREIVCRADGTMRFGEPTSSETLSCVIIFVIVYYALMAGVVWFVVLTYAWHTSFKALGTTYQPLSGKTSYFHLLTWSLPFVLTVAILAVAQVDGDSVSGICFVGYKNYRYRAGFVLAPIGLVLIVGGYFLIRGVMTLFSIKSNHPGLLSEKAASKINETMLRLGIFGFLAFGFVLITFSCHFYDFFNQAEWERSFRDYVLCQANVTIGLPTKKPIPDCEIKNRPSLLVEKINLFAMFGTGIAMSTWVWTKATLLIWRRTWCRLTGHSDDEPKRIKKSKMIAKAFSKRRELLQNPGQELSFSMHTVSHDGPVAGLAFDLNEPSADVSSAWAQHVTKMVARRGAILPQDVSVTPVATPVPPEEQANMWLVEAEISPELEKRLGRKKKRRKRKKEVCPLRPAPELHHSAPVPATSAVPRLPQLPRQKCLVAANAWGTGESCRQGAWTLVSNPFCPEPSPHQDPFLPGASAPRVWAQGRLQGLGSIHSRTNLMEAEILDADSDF

| pIC50 [1] | pIC50 (Gli-luciferase activity; [2]) | pIC50 (Gli-luciferase activity; [3]) | SMILES |
| --- | --- | --- | --- |
| > 7.00 | 6.00 to 7.00 | 6.00 to 7.00 | FC(F)(F)c1ccc(N2CCCN(c3nnc(Cc4ccccc4)c4ccccc34)CC2)nc1 [Example 3] |
| 5.00 to 6.00 |  |  | N#Cc1ccc(N2CCN(c3nnc(Cc4ccccc4)c4ccccc34)CC2)nc1 [Example 4] |
|  | 4.40 to 5.00 | 5.00 to 6.00 | c1ccc(N2CCN(c3nnc(Cc4ccncc4)c4ccccc34)CC2)cc1 [Example 6] |
| > 7.00 | 6.00 to 7.00 | > 7.00 | CC(C)(C)c1ccc(N2CCN(c3nnc(Cc4cc(Cl)cc(Cl)c4)c4ccccc34)CC2)nc1 [Example 9] |
|  | 4.40 to 5.00 | 5.00 to 6.00 | Cc1cc(Cc2nnc(N3CCN(c4ccccc4)CC3)c3ccccc23)ccn1 [Example 11] |
| 4.40 to 5.00 | 5.00 to 6.00 | 5.00 to 6.00 | c1ccc(Cc2nnc(N3CCC(c4ccccc4)CC3)c3ccccc23)cc1 [Example 12] |
| 5.00 to 6.00 | 5.00 to 6.00 | 5.00 to 6.00 | c1ccc(C2CCN(c3nnc(Cc4ccncc4)c4ccccc34)CC2)cc1 [Example 13] |
|  | 5.00 to 6.00 | 5.00 to 6.00 | Cc1cc(Cc2nnc(N3CCC(c4ccccc4)CC3)c3ccccc23)ccn1 [Example 14] |
| 6.00 to 7.00 | 5.00 to 6.00 | > 7.00 | FC(F)(F)c1cnc(N2CCCN(c3nnc(Cc4ccccc4)c4ccccc34)CC2)c(Cl)c1 [Example 17] |
| > 7.00 | 6.00 to 7.00 | > 7.00 | c1ccc(Cc2nnc(N3CCN(c4ccc5ccccc5n4)CC3)c3ccccc23)cc1 [Example 18] |
| > 7.00 | 6.00 to 7.00 | > 7.00 | N#Cc1ccc(N2CCCN(c3nnc(Cc4ccccc4)c4ccccc34)CC2)nc1 [Example 19] |
| 5.00 to 6.00 |  | 5.00 to 6.00 | c1ccc2c(N3CCN(c4cnccn4)CC3)nnc(Cc3ccncc3)c2c1 [Example 20] |
| 6.00 to 7.00 | 5.00 to 6.00 | 6.00 to 7.00 | c1ccc(Cc2nnc(N3CCN(c4cnccn4)CC3)c3ccccc23)cc1 [Example 21] |
|  | 4.40 to 5.00 | 5.00 to 6.00 | Cc1cc(Cc2nnc(N3CCN(c4ccccn4)CC3)c3ccccc23)ccn1 [Example 22] |
| 4.40 to 5.00 | 4.40 to 5.00 | 5.00 to 6.00 | c1ccc(N2CCN(c3nnc(Cc4ccncc4)c4ccccc34)CC2)nc1 [Example 23] |
| 6.00 to 7.00 | 5.00 to 6.00 | 6.00 to 7.00 | c1ccc(Cc2nnc(N3CCN(c4ccccn4)CC3)c3ccccc23)cc1 [Example 24] |
| 6.00 to 7.00 | 5.00 to 6.00 | > 7.00 | c1ccc(Cc2nnc(N3CCN(c4ncccn4)CC3)c3ccccc23)cc1 [Example 25] |
| 5.00 to 6.00 |  | 5.00 to 6.00 | c1ccc2c(N3CCN(c4ccncc4)CC3)nnc(Cc3ccncc3)c2c1 [Example 26] |
| 5.00 to 6.00 | 5.00 to 6.00 | 6.00 to 7.00 | Cc1ccc(N2CCN(c3nnc(Cc4ccccc4)c4ccccc34)CC2C)cc1 (stereo not drawn) [Example 27] |
| 5.00 to 6.00 | 5.00 to 6.00 | 5.00 to 6.00 | Cc1ccc(N2CCN(c3nnc(Cc4ccncc4)c4ccccc34)CC2C)cc1 (stereo not drawn) [Example 28] |
| 4.40 to 5.00 | 4.40 to 5.00 | 5.00 to 6.00 | Cc1ccc(N2CCN(c3nnc(Cc4ccnc(C)c4)c4ccccc34)CC2C)cc1 (stereo not drawn) [Example 29] |
| 5.00 to 6.00 | 5.00 to 6.00 | 6.00 to 7.00 | Clc1ccc(N2CCN(c3nnc(Cc4ccccc4)c4ccccc34)CC2)cc1Cl [Example 30] |
| 6.00 to 7.00 | 5.00 to 6.00 | 6.00 to 7.00 | c1ccc(Cc2nnc(N3CCN(c4ccc5ccccc5c4)CC3)c3ccccc23)cc1 [Example 31] |
| 6.00 to 7.00 | 5.00 to 6.00 | 6.00 to 7.00 | c1ccc2cc(N3CCN(c4nnc(Cc5ccncc5)c5ccccc45)CC3)ccc2c1 [Example 32] |
| 6.00 to 7.00 | 5.00 to 6.00 | 5.00 to 6.00 | Cc1cc(Cc2nnc(N3CCN(c4ccc5ccccc5c4)CC3)c3ccccc23)ccn1 [Example 33] |

| pIC50 [1] | pIC50 (Gli-luciferase activity; [2]) | pIC50 (Gli-luciferase activity; [3]) | SMILES |
| --- | --- | --- | --- |
| 5.00 to 6.00 | 5.00 to 6.00 | 6.00 to 7.00 | c1ccc(Cc2nnc(N3CCN(c4cccc5ccccc45)CC3)c3ccccc23)cc1 [Example 34] |
|  | 5.00 to 6.00 | 5.00 to 6.00 | Cc1cc(Cc2nnc(N3CCN(c4cccc5ccccc45)CC3)c3ccccc23)ccn1 [Example 35] |
| 5.00 to 6.00 | 5.00 to 6.00 | 6.00 to 7.00 | c1ccc2c(N3CCN(c4nnc(Cc5ccncc5)c5ccccc45)CC3)cccc2c1 [Example 36] |
| 5.00 to 6.00 | 5.00 to 6.00 | 6.00 to 7.00 | c1ccc(Cc2nnc(N3CCN(c4ccncc4)CC3)c3ccccc23)cc1 [Example 37] |
| 4.40 to 5.00 | 5.00 to 6.00 | 5.00 to 6.00 | Cc1ccccc1N1CCN(c2nnc(Cc3ccccc3)c3ccccc23)CC1 [Example 38] |
| 6.00 to 7.00 | 6.00 to 7.00 | > 7.00 | c1ccc(Cc2nnc(N3CCCN(c4ncccn4)CC3)c3ccccc23)cc1 [Example 40] |
| 6.00 to 7.00 | 6.00 to 7.00 | > 7.00 | Cc1ccnc(N2CCCN(c3nnc(Cc4ccccc4)c4ccccc34)CC2)n1 [Example 41] |
| > 7.00 | 6.00 to 7.00 | > 7.00 | CCCc1cnc(N2CCN(c3nnc(Cc4ccccc4)c4ccccc34)CC2)nc1 [Example 42] |
| > 7.00 | > 7.00 | > 7.00 | CCc1cnc(N2CCN(c3nnc(Cc4ccccc4)c4ccccc34)CC2)nc1 [Example 43] |
| > 7.00 | 6.00 to 7.00 | > 7.00 | CCCc1cnc(N2CCCN(c3nnc(Cc4ccccc4)c4ccccc34)CC2)nc1 [Example 44] |
| > 7.00 | 6.00 to 7.00 | > 7.00 | CCc1cnc(N2CCCN(c3nnc(Cc4ccccc4)c4ccccc34)CC2)nc1 [Example 45] |
| > 7.00 | > 7.00 | > 7.00 | Cc1ccnc(N2CCN(c3nnc(Cc4ccccc4)c4ccccc34)CC2)n1 [Example 47] |
| 6.00 to 7.00 | 6.00 to 7.00 | > 7.00 | CN(CCO)C(=O)c1ccc(N2CCN(c3nnc(Cc4ccccc4)c4ccccc34)CC2)nc1 [Example 54c, 6-[4-(4-Benzyl-phthalazin-1-yl)-piperazin-1-yl]-N-(2-hydroxy-ethyl)-N-methyl-nicotinamide] |
| 6.00 to 7.00 | 6.00 to 7.00 | > 7.00 | O=C(NCCO)c1ccc(N2CCN(c3nnc(Cc4ccccc4)c4ccccc34)CC2)nc1 [Example 54e] |
| 6.00 to 7.00 | 6.00 to 7.00 | 6.00 to 7.00 | COCCNC(=O)c1ccc(N2CCN(c3nnc(Cc4ccccc4)c4ccccc34)CC2)nc1 [Example 54f] |
| 6.00 to 7.00 | 6.00 to 7.00 | > 7.00 | COCCN(C)C(=O)c1ccc(N2CCN(c3nnc(Cc4ccccc4)c4ccccc34)CC2)nc1 [Example 54g] |
|  | 6.00 to 7.00 | 6.00 to 7.00 | CN(C)CCNC(=O)c1ccc(N2CCN(c3nnc(Cc4ccccc4)c4ccccc34)CC2)nc1 [Example 54h] |
| > 7.00 | 6.00 to 7.00 | > 7.00 | O=C(NCc1ccccc1)c1ccc(N2CCN(c3nnc(Cc4ccccc4)c4ccccc34)CC2)nc1 [Example 54l] |
| > 7.00 | 6.00 to 7.00 | > 7.00 | O=C(NCC1CCCCC1)c1ccc(N2CCN(c3nnc(Cc4ccccc4)c4ccccc34)CC2)nc1 [Example 54m] |
|  | 6.00 to 7.00 | > 7.00 | NCc1ccc(N2CCN(c3nnc(Cc4ccccc4)c4ccccc34)CC2)nc1 [Example 71] |
|  | 4.40 to 5.00 | 5.00 to 6.00 | NCc1ccc(N2CCN(c3nnc(Cc4ccncc4)c4ccccc34)CC2)cc1 [Example 72] |
|  | 6.00 to 7.00 | > 7.00 | CCN1CCOc2cc3c(cc21)Oc1cc2c(cc1=N3)OCC[N+]=2CCCCCC(=O)NCc1ccc(N2CCN(c3nnc(Cc4ccccc4)c4ccccc34)CC2)nc1 [Example 74] |
|  | 4.40 to 5.00 | 5.00 to 6.00 | N#Cc1ccc(N2CCN(c3cnc(Cc4cccc(C#N)c4)c4ccccc34)CC2)nc1 [Example 80] |
|  | 5.00 to 6.00 | 6.00 to 7.00 | COC(=O)CC(SCC(=O)NCc1ccc(N2CCN(c3nnc(Cc4ccccc4)c4ccccc34)CC2)nc1)C(=O)OC (stereo not drawn) [Example 215] |
